Measurements published in PMC4741607 (Oncotarget, 2015).
Read-outs that look alike come from different tables or passages of the source.

What was measured:
HCC827 (EGFR Del19) = assay: Proliferation (CellTiter-Glo), HCC827; type: cell-based, human; details: Homo sapiens
H1975 (EGFR L858R/T790M) = assay: Proliferation (CellTiter-Glo), H1975; type: cell-based, human; details: Homo sapiens
A549 (EGFR wt) = assay: Proliferation (CellTiter-Glo), A549; type: cell-based, human; details: Homo sapiens
H1975 EGFR (L858R/T790M) = assay: Colony formation assay, H1975; type: cell-based, human
H23 (EGFR wt) = assay: Proliferation (CellTiter-Glo), H23; type: cell-based, human; details: Homo sapiens
PC-9 (EGFR Del19) = assay: Proliferation (CellTiter-Glo), PC-9; type: cell-based, human; details: Homo sapiens
H358 (EGFR wt) = assay: Proliferation (CellTiter-Glo), H358; type: cell-based, human; details: Homo sapiens
H3255 (EGFR L858R) = assay: Proliferation (CellTiter-Glo), H3255; type: cell-based, human; details: Homo sapiens
PC-9 EGFR del 19 = assay: Colony formation assay, PC-9; type: cell-based, human
H3255 EGFR L858R = assay: Colony formation assay, H3255; type: cell-based, human
H2122 (EGFR wt) = assay: Proliferation (CellTiter-Glo), H2122; type: cell-based, human; details: Homo sapiens
A431 (EGFR wt) = assay: Proliferation (CellTiter-Glo), A431; type: cell-based, human; details: Homo sapiens
H460 (EGFR wt) = assay: Proliferation (CellTiter-Glo), H460; type: cell-based, human; details: Homo sapiens
HCC827 EGFR Del 19 = assay: Colony formation assay, HCC827; type: cell-based, human
H460 cells = assay: Cell cycle analysis (FACS), H460; type: cell-based, human; details: H460, 48h, 0.3 μM
H3255 cells = assay: Cell cycle analysis (FACS), H3255; type: cell-based, human; details: H3255, 24h, 0.3 μM
PC-9 cells = assay: Cell cycle analysis (FACS), PC-9; type: cell-based, human; details: PC-9, 24h, 0.3 μM
HCC827 cells = assay: Cell cycle analysis (FACS), HCC827; type: cell-based, human; details: HCC827, 24 h, 0.3 μM
PC-9 xenograft = PC-9 xenograft mouse model; type: in vivo, Nude (Nu/Nu) mice; details: PC-9 xenograft, 25 mg/kg/day QD oral gavage
Procedure: (§1) Tumor diameter was measured 3 times weekly. Tumor volumes (V) were calculated by the equation (V = length × width × width/2). ALL experiments and procedures followed the guidelines of the Institutional Animal Care and Use Committees of National Institue of Biological Sciences, Beijing.

H1975 xenograft = H1975 xenograft mouse model; type: in vivo, Nude (Nu/Nu) mice; details: 25 mg/kg/day QD oral gavage
Procedure: as §1

For `C=CC(=O)Nc1cc(Nc2nccc(-c3cn(C)c4ccccc34)n2)c(OC)cc1N(C)CCN(C)C` [AZD-9291, AZD9291], the GI50 (HCC827 (EGFR Del19); HCC827, 72 h) was 4 nM, the GI50 (H1975 (EGFR L858R/T790M); NCI-H1975, 72 h) was […] and the GI50 (A549 (EGFR wt); A549, 72 h) was 5000 nM. For the same compound, the EC50 (H1975 EGFR (L858R/T790M); Homo sapiens, NCI-H1975, 240 h, read-out: EC50 colony formation, H1975, 10 days) was 118 nM, the EC50 (H1975 EGFR (L858R/T790M); read-out: EC50 colony formation, H1975, 10 days) was 118 nM and the GI50 (H23 (EGFR wt); 72 h) was 4200 nM. It also gave a GI50 (PC-9 (EGFR Del19); 72 h) of 3 nM, a GI50 (H358 (EGFR wt); NCI-H358, 72 h) of 9400 nM and a GI50 (H3255 (EGFR L858R); NCI-H3255, 72 h) of 31 nM. The EC50 (PC-9 EGFR del 19; Homo sapiens, 240 h, read-out: EC50 colony formation, PC-9, 10 days) was 2.51 nM, the EC50 (H3255 EGFR L858R; Homo sapiens, NCI-H3255, 240 h, read-out: EC50 colony formation, H3255, 10 days) was 5.59 nM and the EC50 (H3255 EGFR L858R; read-out: EC50 colony formation, H3255, 10 days) was 5.5 nM. For the same compound, the GI50 (H2122 (EGFR wt); NCI-H2122, 72 h) was 7600 nM, the GI50 (A431 (EGFR wt); A-431, 72 h) was […] and the GI50 (H460 (EGFR wt); NCI-H460, 72 h) was 4000 nM. The EC50 (HCC827 EGFR Del 19; Homo sapiens, HCC827, 240 h, read-out: EC50 colony formation, HCC827, 10 days) was 1.23 nM and the EC50 (HCC827 EGFR Del 19; read-out: EC50 colony formation, HCC827, 10 days) was 1.2 nM.
For `C=CC(=O)Nc1cccc(Nc2nc(Nc3ccc(N4CCN(C(C)=O)CC4)cc3OC)ncc2C(F)(F)F)c1` [CO-1686], the “%G0-G1” value (H460 cells) was 51.62%, the “%G2-M” value (H460 cells) was 8.78% and the GI50 (HCC827 (EGFR Del19); HCC827, EGFR Del19, 72 hours, read-out: GI50) was 97 nM. It also gave a GI50 (H1975 (EGFR L858R/T790M); NCI-H1975, H1975, EGFR L858R/T790M, 72 hours, read-out: GI50) of 440 nM, a GI50 (A549 (EGFR wt); A549, EGFR wt, 72 hours, read-out: GI50) of 830 nM and an EC50 (H1975 EGFR (L858R/T790M); Homo sapiens, NCI-H1975, 240 h, H1975, 10 days, read-out: EC50 colony formation) of 606 nM. The GI50 (H23 (EGFR wt); H23, EGFR wt, 72 hours, read-out: GI50) was 1400 nM, the GI50 (PC-9 (EGFR Del19); PC-9, EGFR Del19, 72 hours, read-out: GI50) was 130 nM and the GI50 (H358 (EGFR wt); NCI-H358, H358, EGFR wt, 72 hours, read-out: GI50) was 4800 nM. It also gave a GI50 (H3255 (EGFR L858R); NCI-H3255, H3255, EGFR L858R, 72 hours, read-out: GI50) of 250 nM, an EC50 (PC-9 EGFR del 19; Homo sapiens, 240 h, PC-9, 10 days, read-out: EC50 colony formation) of 56.2 nM and an EC50 (PC-9 EGFR del 19; PC-9, 10 days, read-out: EC50 colony formation) of 56 nM. For the same compound, the EC50 (H3255 EGFR L858R; Homo sapiens, NCI-H3255, 240 h, H3255, 10 days, read-out: EC50 colony formation) was 211 nM, the GI50 (H2122 (EGFR wt); NCI-H2122, H2122, EGFR wt, 72 hours, read-out: GI50) was 1400 nM and the GI50 (A431 (EGFR wt); A-431, A431, EGFR wt, 72 hours, read-out: GI50) was 1200 nM. For the same compound, the GI50 (H460 (EGFR wt); NCI-H460, H460, EGFR wt, 72 hours, read-out: GI50) was 2500 nM, the “%G0-G1” value (H3255 cells) was 81.24% and the “%G2-M” value (H3255 cells) was 9.84%. The “%G0-G1” value (PC-9 cells) was 85.49%, the “%G2-M” value (PC-9 cells) was 8.97% and the “%G0-G1” value (HCC827 cells) was 83.96%. For the same compound, the “%G2-M” value (HCC827 cells) was 3.62%, the EC50 (HCC827 EGFR Del 19; HCC827, 10 days, read-out: EC50 colony formation) was 11 nM and the EC50 (HCC827 EGFR Del 19; Homo sapiens, HCC827, 240 h, HCC827, 10 days, read-out: EC50 colony formation) was 11.5 nM.
`COc1cc2ncnc(Nc3ccc(F)c(Cl)c3)c2cc1OCCCN1CCOCC1` [Gefitinib] was tested, and the “anti-tumor activity (tumor growth)” value (PC-9 xenograft) was “almost completely suppressed the tumor growth” and the “anti-tumor activity (tumor growth)” value (H1975 xenograft) was “completely lost the anti-tumor efficacy”.
